Measurements reported in ChEMBL document CHEMBL3217458, “Discovery of a novel benzopyranyl compound as a potent in vitro and in vivo osteogenic agent” (Medchemcomm, 2011).
The source made the active and inactive calls. The calls are words filed in the database; no cut-off is given here.

What was measured:
C3H 10T1/2 [1] = experiment: Induction of osteogenesis in mouse C3H10T1/2 cells assessed as increase in alkaline phosphatase activity at 2 uM after 72 hrs by ALP assay; format: functional
C3H 10T1/2 [2] = experiment: Induction of osteogenesis in mouse C3H10T1/2 cells assessed as increase in alkaline phosphatase activity after 72 hrs by ALP assay; format: functional, cell-based
DU-145 = experiment: Cytotoxicity against human DU145 cells at 0.1 to 25 uM after 24 hrs by WST-1 assay; format: cell-based; conditions: du-145, 24 h
Mus musculus [3] = experiment: Induction of osteogenesis in ovariectomized C57BL/6 mouse model assessed as reduction in trabecular space at 10 mg/kg/day, po administered 5 days per week for 4 weeks by micro-CT analysis relative to vehicle-treated control; format: functional, organism-based; conditions: Trabecula
Mus musculus [4] = experiment: Induction of osteogenesis in ovariectomized C57BL/6 mouse model assessed as increase in bone volume at 10 mg/kg/day, po administered 5 days per week for 4 weeks by micro-CT analysis relative to vehicle-treated control; format: functional, organism-based
C3H 10T1/2 [5] = experiment: Induction of osteogenesis in mouse C3H10T1/2 cells assessed as calcium deposition at 4 uM by Alizarin Red S staining-based assay; format: functional, cell-based
[6] = Cytotoxicity against human CaSki cells at 0.1 to 25 uM after 24 hrs by WST-1 assay; format: cell-based; conditions: ca-ski
Mus musculus [7] = experiment: Induction of osteogenesis in ovariectomized C57BL/6 mouse model assessed as increase in […] at 5 to 10 mg/kg/day, po administered 5 days per week for 4 weeks by dual-energy X-ray absorptiometry relative to vehicle-treated control; format: functional
[8] = Cytotoxicity against mouse 3T3L1 cells at 0.1 to 25 uM after 24 hrs by WST-1 assay; format: cell-based; conditions: 3t3-l1, 24 h
L6 = experiment: Cytotoxicity against rat L6 cells at 0.1 to 25 uM after 24 hrs by WST-1 assay; format: cell-based; conditions: l6, 24 h
C2C12 = experiment: Cytotoxicity against mouse C2C12 cells at 0.1 to 25 uM after 24 hrs by WST-1 assay; format: cell-based; conditions: c2c12, 24 h
PC-3 = experiment: Cytotoxicity against human PC3 cells at 0.1 to 25 uM after 24 hrs by WST-1 assay; format: cell-based; conditions: pc-3, 24 h
HeLa = experiment: Cytotoxicity against human HeLa cells at 0.1 to 25 uM after 24 hrs by WST-1 assay; format: cell-based
C3H 10T1/2 [9] = experiment: Induction of osteogenesis in mouse C3H10T1/2 cells using BCIP as substrate assessed as increase in alkaline phosphatase activity at 0.25 to 4 uM after 72 hrs by nitroblue tetrazolium chloride staining-based assay; format: functional, cell-based
HepG2 = experiment: Cytotoxicity against human HepG2 cells at 0.1 to 25 uM after 24 hrs by WST-1 assay; format: cell-based; conditions: hepg2, 24 h
Mus musculus [10] = experiment: Induction of osteogenesis in ovariectomized C57BL/6 mouse model assessed as increase in trabecular number at 10 mg/kg/day, po administered 5 days per week for 4 weeks by micro-CT analysis relative to vehicle-treated control; format: functional, organism-based; conditions: Trabecula
C3H 10T1/2 [11] = experiment: Activation of proto-oncogene protein Wnt/beta-catenin signaling (unknown origin) transfected in mouse C3H10T1/2 cells assessed as increase in transcriptional activity at 2 uM after 48 hrs by TOPflash luciferase reporter gene assay; format: cell-based; conditions: Homo sapiens

SMILES: CCOC(=O)CCC1(C)C=C(c2cccc([N+](=O)[O-])c2)c2ccc(O)cc2O1 (stereo unspecified)
- fold change (FC) (C3H 10T1/2 [1]): 1.4

SMILES: CC1(C)C=C(c2ccccc2[N+](=O)[O-])c2ccc(O)cc2O1
- fold change (FC) (C3H 10T1/2 [1]): 1.2

SMILES: CC1(C)CC(c2ccc([N+](=O)[O-])cc2)c2cc(-c3cccc(O)c3)ccc2O1 (stereo unspecified)
- Activity (C3H 10T1/2 [2]): inactive

SMILES: CC(=O)c1cccc(C2=CC(C)(C)Oc3cc(O)ccc32)c1
- fold change (FC) (C3H 10T1/2 [1]): 1.9

SMILES: COc1ccc2c(c1O)OC(C)(C)C=C2c1cccc([N+](=O)[O-])c1
- fold change (FC) (C3H 10T1/2 [1]): 1.5

SMILES: CC1(C)C=C(c2ccc(N)cc2)c2ccc(O)cc2O1
- fold change (FC) (C3H 10T1/2 [1]): 3.9

SMILES: CC1(C)C=C(c2cccc(O)c2)c2ccc(O)cc2O1
- fold change (FC) (C3H 10T1/2 [1]): 1.4

SMILES: CN(C)c1cccc(C2=CC(C)(C)Oc3cc(O)ccc32)c1
- fold change (FC) (C3H 10T1/2 [1]): 1.6

SMILES: CC1(C)CC(c2cccnc2)c2ccc(O)cc2O1 (stereo unspecified)
- Activity (C3H 10T1/2 [2]): inactive

SMILES: Cc1n[nH]c(C)c1C1CC(C)(C)Oc2cc(O)ccc21 (stereo unspecified)
- Activity (C3H 10T1/2 [2]): inactive

SMILES: CC1(C)CC(c2ccc([N+](=O)[O-])cc2)c2cc(Cl)cc(-c3cccc(O)c3)c2O1 (stereo unspecified)
- Activity (C3H 10T1/2 [2]): inactive

SMILES: O=[N+]([O-])c1cccc(C2=CC3(CCCC3)Oc3cc(O)ccc32)c1
- fold change (FC) (C3H 10T1/2 [1]): 0.6

SMILES: CC1(C)CC(c2cccs2)c2ccc(O)cc2O1 (stereo unspecified)
- Activity (C3H 10T1/2 [2]): inactive

SMILES: CC1(C)CC(c2ccccc2)c2ccc(O)cc2O1 (stereo unspecified)
- Activity (C3H 10T1/2 [2]): inactive

SMILES: CC1(C)C=C(c2ccc([N+](=O)[O-])cc2)c2ccc(O)cc2O1
- fold change (FC) (C3H 10T1/2 [1]): 3.1

SMILES: CN(C)c1ccc(C2=CC(C)(C)Oc3cc(O)ccc32)cc1
- fold change (FC) (C3H 10T1/2 [1]): 0.7

SMILES: CC1(C)C=C(c2cc(Cl)cc(Cl)c2)c2ccc(O)cc2O1
- fold change (FC) (C3H 10T1/2 [1]): 1.5

SMILES: CC1(C)C=C(c2cccc(N)c2)c2ccc(O)cc2O1
- fold change (FC) (C3H 10T1/2 [1]): 2.5

SMILES: CC1(C)CC(c2ccoc2)c2ccc(O)cc2O1 (stereo unspecified)
- Activity (C3H 10T1/2 [2]): inactive

SMILES: CC1(C)C=C(c2cccc([N+](=O)[O-])c2)c2ccc(O)cc2O1
- Activity (DU-145): Non-toxic
- Activity (C3H 10T1/2 [2]): Dose-dependent effect
- Activity (Mus musculus [3]): Active
- Activity (Mus musculus [4]): Active
- Activity (C3H 10T1/2 [5]): Active
- Activity [6]: Non-toxic
- Activity (Mus musculus [7]): 37%
- Activity [8]: Non-toxic
- Activity (L6): Non-toxic
- Activity (C2C12): Non-toxic
- Activity (PC-3): Non-toxic
- Activity (HeLa): Non-toxic
- Activity (C3H 10T1/2 [9]): Dose-dependent effect
- Activity (HepG2): Non-toxic
- Activity (Mus musculus [10]): Active
- Activity (C3H 10T1/2 [11]): Active
- fold change (FC) (C3H 10T1/2 [1]): 6.8
